# Measurements: patent US11773077B2, “Compounds containing carbon-carbon linker as GPR120 agonists” (PIRAMAL ENTERPRISES LIMITED, priority 2015, dated 2023)
# Target: T1, GPR120L (Long Isoform) receptor (Homo sapiens, UniProt Q5NUL3)
# T1 construct: expressed in transfected cells; similar procedure in HEK 293 cells
# T1 sequence (Q5NUL3 1-377 isoform Q5NUL3-1): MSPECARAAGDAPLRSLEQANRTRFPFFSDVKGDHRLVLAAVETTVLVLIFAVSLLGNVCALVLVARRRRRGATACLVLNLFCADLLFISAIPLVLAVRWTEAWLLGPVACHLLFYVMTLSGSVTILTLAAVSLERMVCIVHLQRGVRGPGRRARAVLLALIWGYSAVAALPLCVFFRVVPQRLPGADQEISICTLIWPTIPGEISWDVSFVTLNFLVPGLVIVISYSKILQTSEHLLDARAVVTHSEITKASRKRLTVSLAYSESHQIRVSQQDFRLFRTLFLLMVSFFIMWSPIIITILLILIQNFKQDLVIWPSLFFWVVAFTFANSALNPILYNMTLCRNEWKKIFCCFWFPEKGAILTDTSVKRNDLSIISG
# Test: Beta (β) arrestin 2 Interaction Assay (β-galactosidase enzyme fragment complementation)
# Format: cell-based
# Conditions: β-arrestin recruitment; CHO-K1 cells stably expressing GPR120L, similar procedure for HEK 293 cells; 2 hours incubation
# Experimental: Beta (β) arrestin 2 Interaction Assay […] was performed using CHO-K1 cells stably expressing the GPR120L (Long Isoform) receptor using β-galactosidase (Beta gal) enzyme fragment complementation assay. The measurement of GPR120 activation upon agonist activation was directly provided by β-arrestin recruitment. One day before the β-arrestin 2 assay, CHO-K1 cells were seeded and incubated overnight at 37° C. in a 5% CO2 humidified atmosphere. Cells were treated with the test compounds in various concentrations ranging from 30 μM to 1 nM and incubated for 2 hours for GPCR (GPR120) activation. Extent of Arrestin recruitment was measured by adding detection reagents for Beta gal complementation assay, and was further incubated for 1 hour. The chemiluminescent signal was detected on Polar Star (BMG Labtech). The dose-response curve was analyzed using Sigma Plot/Graph Pad. The EC50 (concentration of the test compounds where 50% of compounds' maximal activity is observed) values were calculated from the dose-response curve.
row,SMILES,EC50 [nM]
1,"CC1(c2ccc(-c3ccc(F)cc3CC(F)(F)c3ccc(CCCC(=O)O)cc3)s2)CC1 [Compound 6, 4-(4-(1,1-Difluoro-2-(5-fluoro-2-(5-(1-methylcyclopropyl)thiophen-2-yl)phenyl)ethyl)phenyl)butanoic acid]",500 to 5000
2,"COc1ccc(-c2ccc(F)cc2CC(F)(F)c2ccc(CCCC(=O)O)cc2)cn1 [Compound 20, 4-(4-(1,1-difluoro-2-(5-fluoro-2-(6-methoxypyridin-3-yl)phenyl)ethyl)phenyl)butanoic acid]",50 to 500
3,"CC1(c2ccc(-c3ccc(F)cc3C=Cc3ccc(CCCC(=O)O)cc3)s2)CC1 [Compound 14, 4-(4-(5-fluoro-2-(5-(1-methylcyclopropyl)thiophen-2-yl)styryl)phenyl)butanoic acid]",50 to 500
4,"O=C(O)CCCc1ccc(CCc2cc(F)ccc2-c2nc3c(s2)CCCC3)cc1 [Compound 12, 4-(4-(5-fluoro-2-(4,5,6,7-tetrahydrobenzo[d]thiazol-2-yl)phenethyl)phenyl)butanoic acid]",50 to 500
5,"N#CC1(c2ccc(-c3ccc(F)cc3C#Cc3ccc(CCCC(=O)O)cc3)s2)CC1 [Compound 11, 4-(4-((2-(5-(1-Cyanocyclopropyl)thiophen-2-yl)-5-fluorophenyl)ethynyl)phenyl)butanoic acid]",500 to 5000
6,"Cc1ccc(-c2ccc(F)cc2C#Cc2ccc(CCCC(=O)O)nc2)s1 [Compound 3, 4-(5-((5-Fluoro-2-(5-methylthiophen-2-yl)phenyl)ethynyl)pyridin-2-yl)butanoic acid]",5000 to 10000
7,"O=C(O)CCCc1ccc(C#Cc2cc(F)ccc2-c2ccc(C3CC3)s2)cc1 [Compound 18, 4-(4-((2-(5-cyclopropylthiophen-2-yl)-5-fluorophenyl)ethynyl)phenyl)butanoic acid]",50 to 500
8,"Cc1ccc(-c2ccc(F)cc2CC(F)(F)c2ccc(CCCC(=O)O)cc2)s1 [Compound 5, 4-(4-(1,1-Difluoro-2-(5-fluoro-2-(5-methylthiophen-2-yl)phenyl)ethyl)phenyl)butanoic acid]",50 to 500
